In US5430058A, “Pharmaceutical compositions comprising hydroxamate derivatives for iron removal” (Yeda Research and Development Co. Ltd., priority 1993, dated 1995):
Values after ≈ are worked out from the molar mass of the structure shown. Read-outs that look alike come from different tables or passages of the source.

What was measured:
[1] = Relative iron(III) binding efficiency by competition with EDTA; assay type: physicochemical; details: for rel. Fe binding (b): Table 2, relative to DFO = 1.16, 0.75 mM hydroxamate, 0.15 mM EDTA, 0.15 mM Fe3+ in aqueous methanol; for Pcoeff*Fe binding (a*b): product of relative partition coefficient and relative iron(III) binding; for Relative binding: Table 1, DFO = 100, competition with EDTA in aqueous MeOH
Description: c. The relative binding efficiencies of the reversed siderophores (0.75 mM reversed siderophore and 0.15 mM Fe^3+ in aqueous MeOH (MeOH-0.1N NaOAc) were incubated with EDTA (0.15 mM). After equilibration overnight, the fraction of siderophore- Fe^3+ complex present was determined at 430 nm.
(§1) The values for Pcoeff of free RSF ileun2 (the same as SF1ileu) and of leun2 and their respective iron(III) complexes were similar (not shown).

[2] = tested on: trophozoites of P. falciparum; assay: Antimalarial activity (Table 2), [3H]-hypoxanthine incorporation; assay type: cell-based, Plasmodium falciparum; details: Plasmodium falciparum
Description: g. Bioassay of iron carrier antimalarial activity. The antimalarial activity was assayed by adding the compounds from concentrated stock solutions (in DMSO) to microcultures (24 wells, Costar) containing infected red cells (2.5% hematocrit and 2% parasitemia). The cultures were usually synchronized (4-7 hrs. windows) by incubation in 300 mM Ala, 10 mM TRIS-Cl in conjunction with gelatin flotation and used either at the trophozoite (1-2% parasitemia) or at the ring stage (4-6% parasitemia) of the erythrocyctic cycle. After the indicated time of incubation with drug and either previous to or after washing 3 times with 100 volumes growth medium, the cells were supplemented with 6 μCi of either [^3 H]-hypoxanthine or [^3 H]-Ileu (Amersham, England) per well and parasite growth assessed after 24-48 hours by harvesting the labelled cells onto glass-fiber filters (Tamar, Inc. Jerusalem) and counting of the radioactivity. […]

[3] = Partition between n-octanol and saline; assay type: physicochemical; details: for rel. Pcoeff (a): Table 2, relative to L-val-n1 = 1.0; for logP: Table 1, free ligand, read-out: Partition coefficient (converted)
Description: e. Partition coefficients were obtained by overnight equilibration of the free reversed siderophores between equal volumes of n-octanol and saline. The concentrations of the ligands in each phase were determined by adding excess iron(III) and measuring the ferric complexes at 430 nm.
as §1

[4] = amino acid side chain, Tanford/Segret's scale as given by Eisenberg 1984; cited from earlier work
[5] = Extraction of iron from aqueous FeCl3/citrate into chloroform; assay type: physicochemical; details: 0.3 mM in chloroform vs 0.3 mM FeCl3, 0.3 mM citric acid, 40 mM TRIS, pH 6.9, overnight
Description: d. Extractions were performed by overnight equilibration of 0.3 mM chloroform solutions of reversed siderophore with aqueous solutions of 0.3 mM FeCl3, 0.3 mM citric acid, 40 mM TRIS, pH 6.9. The amount of iron taken up into the organic phase was determined by the absorption of the iron+complex at 430 nm. No iron uptake into chloroform solutions devoid of RSF was observed by ion chromatography.

[6] = tested on: trophozoites of P. falciparum, strain ItG2G1; assay: Antimalarial activity (Table 1), [3H]hypoxanthine incorporation; assay type: cell-based; details: Plasmodium falciparum, 48 h
Description: f. Parasite cultures. The P. falciparum strains used in the experiments: ItG2G1 (Brazil, provided by Dr. L. H. Miller), D6 (W. African, provided by Dr. A. J. M. Oduola) FCR-3 (Gambian, provided by Dr. J. B. Jensen) and W2 (Indochina, provided by Dr. A. J. M. Oduola), were grown in culture flasks of human erythrocytes by a modified version of Trager and Jensen's method as described by Silfen et al. ((1988) Biochem. Pharmacol. 37: 4269-4276)).
g. Bioassay of iron carrier antimalarial activity. The antimalarial activity was assayed by adding the compounds from concentrated stock solutions (in DMSO) to microcultures (24 wells, Costar) containing infected red cells (2.5% hematocrit and 2% parasitemia). The cultures were usually synchronized (4-7 hrs. windows) by incubation in 300 mM Ala, 10 mM TRIS-Cl in conjunction with gelatin flotation and used either at the trophozoite (1-2% parasitemia) or at the ring stage (4-6% parasitemia) of the erythrocyctic cycle. After the indicated time of incubation with drug and either previous to or after washing 3 times with 100 volumes growth medium, the cells were supplemented with 6 μCi of either [^3 H]-hypoxanthine or [^3 H]-Ileu (Amersham, England) per well and parasite growth assessed after 24-48 hours by harvesting the labelled cells onto glass-fiber filters (Tamar, Inc. Jerusalem) and counting of the radioactivity.
The antimalarial activity of the different chelators was initially evaluated on cultures of trophozoites which were exposed for 24 hours to different concentrations of chelators. Following that period, [^3 H]-hypoxanthine or [^3 H]-Ileu were added and 24 hours later the parasitemia and incorporation of label into macromolecular material was determined.

[7] = tested on: infected red cells; assay: Uptake of 59Fe-carrier complexes into infected red cells; assay type: cell-based, human erythrocytes infected with P. falciparum
Description: (§2) k. Uptake of radioactive carrier-Fe complexes. DFO and the different SF derivatives were pre-complexed with iron by addition of concentrated stock solutions of 20 mg/ml carriers to ^59 FeCl3 (Amersham, England) in 0.5 ml of 150 mM NaCl, 10 mM Hepes at 3-5 molar excess of carrier for 1 hour at room temperature. To begin the flux, normal or parasitized red cells that had been washed 3 times in saline buffer and resuspended in the same buffer supplemented with 5% bovine serum albumin (BSA), 2.5 mM citrate, 2 mg/ml glucose were added to radioactive ^59 Fe-complexes at a final suspension of 20% hematocrit. After incubation at 37° C., 75 μl suspension was removed in duplicate aliquots for each time point, placed in plastic 15 ml test tube (Starstedt) and centrifuged 1 minute at 2,500 g. The supernatant was removed and the pellet immediately placed on ice. After all sampling was completed the pellets were washed twice in 15 ml of ice cold buffer containing 50 mM EDTA and lysed in distilled water. Radioactivity (Gamma emission, 700-1300 Kev) was counted and the cell number for each sample determined from hemoglobin absorption of the lysate at 410 nm.
Penetration of RSF's into normal and infected red cells was estimated by monitoring uptake of the RSF's-^59 Fe(III) complexes into infected and uninfected cells and compared to DFO. In order to confirm actual uptake of Fe-RSF ileun2 rather than adsorption to the outer membrane, cells were thoroughly washed and lysates were subjected to 80,000g×20 min centrifugation.
The carriers were pre-complexed to ^59 FeCl3 at 4:1 ration in DMSO with 5 μM external FeCl3 (from methanolic stock solutions). The radioactive complexes were then added to 20% hematocrit cell suspensions and flux was measured. […] Cell number was determined from hemoglobin absorption of lysate at 410 nm.

[8] = tested on: normal red cells; assay: Uptake of 59Fe-carrier complexes into normal red cells; assay type: cell-based, human
Description: as §2
Due to the fact that RSF's have markedly greater lipophilicity than DFO, they were expected to faster penetrate and therefore more effectively chelate intracellular iron after short exposure times. Penetration of RSF's into normal and infected red cells was estimated by monitoring uptake of the RSF's-^59 Fe(III) complexes into infected and uninfected cells and compared to DFO. In order to confirm actual uptake of Fe-RSF ileun2 rather than adsorption to the outer membrane, cells were thoroughly washed and lysates were subjected to 80,000g×20 min centrifugation. More than 90% of the total counts were found in the cytosol fraction (results not shown).
FIGS. 8a and 8b show uptake of Fe^59 -carrier complexes into normal and infected red cells. Uptake of ^59 -Fe-RSF (FIG. 8a) and ^59 Fe-DFO (FIG. 8b) into normal (open symbols) and infected (closed symbols) red cells (60% parasitemia, >90% trophozoites). The carriers were pre-complexed to ^59 FeCl3 at 4:1 ration in DMSO with 5 μM external FeCl3 (from methanolic stock solutions). The radioactive complexes were then added to 20% hematocrit cell suspensions and flux was measured. Specific activity was 485000 cpm/nmole and 369000 cpm/nmole for the RSF and DFO uptake experiments, respectively. Cell number was determined from hemoglobin absorption of lysate at 410 nm.

[9] = trophozoites, 40 hours exposure, mean of 3-4 experiments, read-out: IC50 (c)

Row | SMILES | rel. Fe binding (b) [1] | Pcoeff*Fe binding (a*b) [1] | IC50 [2, 9] [µM] | rel. Pcoeff (a) [3] | Hydrophobicity [4] | Extraction efficiency [5] | IC50 [6] [µg/mL] | Relative binding [1] | IC50 ([2]; 40 h, read-out: IC50 (c)) [µM] | logP [3] | Uptake kinetics compared with RSF-ileun2 [7] | Uptake kinetics compared with RSF-ileun2 [8] | Pcoeff of free ligand vs iron(III) complex ([3]; not shown) | rel. Fe binding (b) ([1]; listed as L-val n1) | Fe-binding affinity relative to DFO ([1]; percent that of DFO) [%] | Pcoeff*Fe binding (a*b) ([1]; listed as L-val of n1 subfamily) | IC50 ([2]; discussion of Table 2, unit inferred, read-out: IC50) [µM]
1 | CCC(COCCC(=O)N[C@H](C(=O)N(C)O)C(C)C)(COCCC(=O)N[C@H](C(=O)N(C)O)C(C)C)COCCC(=O)N[C@H](C(=O)N(C)O)C(C)C [(L--val) n=2] | 1.31 | 2.8 | 6 ± 2 | 2.1 | – | – | – | – | – | – | – | – | – | – | – | – | –
2 | CCC(COCCC(=O)N[C@@H](C)C(=O)N(C)O)(COCCC(=O)N[C@@H](C)C(=O)N(C)O)COCCC(=O)N[C@@H](C)C(=O)N(C)O [SF1--L--ala] | 1.25 | 0.37 | – | 0.3 | 1.0 | 88 | 40 (≈ 61.5 µM) | 108 | 62 ± 10 | -0.276 | – | – | – | – | – | – | –
3 | CCC(COCC(=O)N[C@@H](CC(C)C)C(=O)N(C)O)(COCC(=O)N[C@@H](CC(C)C)C(=O)N(C)O)COCC(=O)N[C@@H](CC(C)C)C(=O)N(C)O [(L--leu) n=1] | 0.23 | 3.86 | 5 ± 2 | 17.0 | – | – | – | – | – | – | Identical uptake kinetics | Identical uptake kinetics | – | – | – | – | –
4 | CCC(COCCC(=O)N[C@H](C)C(=O)N(C)O)(COCCC(=O)N[C@H](C)C(=O)N(C)O)COCCC(=O)N[C@H](C)C(=O)N(C)O [SF1--D--ala] | 1.25 | 0.37 | – | 0.3 | 1.0 | 88 | 45 (≈ 69.2 µM) | 108 | 70 ± 13 | -0.276 | – | – | – | – | – | – | –
5 | CCC(COCCC(=O)N[C@@H](CC(C)C)C(=O)N(C)O)(COCCC(=O)N[C@@H](CC(C)C)C(=O)N(C)O)COCCC(=O)N[C@@H](CC(C)C)C(=O)N(C)O [SF1--L--leu] | 0.12 | 0.9 | – | 7.4 | 3.5 | 35 | 17 (≈ 21.9 µM) | 10 | 22 ± 4 | 1.1 | – | – | similar | – | – | – | –
6 | CCC(COCCC(=O)N1CCC[C@H]1C(=O)N(C)O)(COCCC(=O)N1CCC[C@H]1C(=O)N(C)O)COCCC(=O)N1CCC[C@H]1C(=O)N(C)O [SFI--pro] | 0.16 | 0.06 | – | 0.4 | 1.5 | 38 | > 100 | 14 | > 100 | -0.187 | – | – | – | – | – | – | –
7 | CCC(COCC(=O)N[C@H](C(=O)N(C)O)C(C)C)(COCC(=O)N[C@H](C(=O)N(C)O)C(C)C)COCC(=O)N[C@H](C(=O)N(C)O)C(C)C [(L--val) n=1] | 1.0 | 1.0 | 4 ± 1 | 1.0 | – | – | – | – | – | – | – | – | – | 1 | 86 | 1 | 4
8 | CC[C@@H](C)[C@@H](NC(=O)CCOCC(CC)(COCCC(=O)N[C@@H](C(=O)N(C)O)[C@H](C)CC)COCCC(=O)N[C@@H](C(=O)N(C)O)[C@H](C)CC)C(=O)N(C)O [(D--ileu) n=2] | 0.298 | 2.4 | – | 8.2 | – | – | – | – | 9 ± 3 | – | – | – | – | – | – | – | –
9 | CC[C@H](C)[C@H](NC(=O)COCC(CC)(COCC(=O)N[C@H](C(=O)N(C)O)[C@@H](C)CC)COCC(=O)N[C@H](C(=O)N(C)O)[C@@H](C)CC)C(=O)N(C)O [(L--ileu) n=1] | 1.0 | 9.3 | 3 ± 1 | 9.0 | – | – | – | – | – | – | – | – | – | – | – | – | –
